Data taken from ChEMBL document CHEMBL4834420, “Projected Dose Optimization of Amino- and Hydroxypyrrolidine Purine PI3Kδ Immunomodulators” (J Med Chem, 2021).

Key:
[1] = biological target: T1, Phosphatidylinositol 4,5-bisphosphate 3-kinase catalytic subunit delta isoform (Homo sapiens, UniProt O00329); assay: Inhibition of PI3Kdelta in human Ramos cells assessed as reduction in anti-IgM-antibody-induced phosphorylation of AKT at Ser473 residue preincubated for 20 mins followed by anti-IgM antibody stimulation and measured after 30 mins by alphascreen assay; assay type: cell-based
T1 sequence (O00329 whole entry): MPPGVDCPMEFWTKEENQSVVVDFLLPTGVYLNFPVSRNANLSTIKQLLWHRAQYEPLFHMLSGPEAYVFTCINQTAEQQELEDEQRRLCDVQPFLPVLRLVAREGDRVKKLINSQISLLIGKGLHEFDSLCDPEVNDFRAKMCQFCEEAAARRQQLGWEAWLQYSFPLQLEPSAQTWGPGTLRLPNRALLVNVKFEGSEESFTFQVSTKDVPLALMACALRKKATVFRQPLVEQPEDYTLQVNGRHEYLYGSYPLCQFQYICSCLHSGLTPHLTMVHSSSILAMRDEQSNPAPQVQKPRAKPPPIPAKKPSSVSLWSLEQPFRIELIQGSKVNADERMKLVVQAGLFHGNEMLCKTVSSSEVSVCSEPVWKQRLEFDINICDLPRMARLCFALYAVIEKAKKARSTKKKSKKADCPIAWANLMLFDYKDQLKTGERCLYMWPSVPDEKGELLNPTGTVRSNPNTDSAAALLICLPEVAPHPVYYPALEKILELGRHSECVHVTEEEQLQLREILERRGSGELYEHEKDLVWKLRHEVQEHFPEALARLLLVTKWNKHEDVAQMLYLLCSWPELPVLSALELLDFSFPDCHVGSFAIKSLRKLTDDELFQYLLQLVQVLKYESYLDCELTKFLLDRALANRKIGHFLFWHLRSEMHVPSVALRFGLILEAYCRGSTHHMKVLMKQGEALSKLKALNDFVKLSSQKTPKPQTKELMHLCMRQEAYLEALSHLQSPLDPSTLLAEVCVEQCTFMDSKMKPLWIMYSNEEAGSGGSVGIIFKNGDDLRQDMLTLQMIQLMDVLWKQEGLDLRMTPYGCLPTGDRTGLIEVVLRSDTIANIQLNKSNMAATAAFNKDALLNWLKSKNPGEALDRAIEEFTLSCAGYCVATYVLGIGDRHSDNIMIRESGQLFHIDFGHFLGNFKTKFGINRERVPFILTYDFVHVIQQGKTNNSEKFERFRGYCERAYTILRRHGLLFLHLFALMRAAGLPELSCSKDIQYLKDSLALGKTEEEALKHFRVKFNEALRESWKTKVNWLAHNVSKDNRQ

[2] = Inhibition of adenosine transporter in human HeLa cells assessed as reduction in [3H]adenosine uptake preincubated for 30 mins followed by [3H]adenosine addition and measured after 60 mins; assay type: cell-based
[3] = biological target: PI3-kinase p110-delta/p85-alpha (Homo sapiens, UniProt O00329); assay: Inhibition of N-terminal His6-tagged recombinant full length human p110delta/untagged recombinant full length human p85alpha expressed in baculovirus infected Sf21 insect cells using PIP2 as substrate preincubated for 15 mins followed by substrate addition and measured after 1 hr by HTRF assay
PI3-kinase p110-delta/p85-alpha, sequence (P27986 whole entry, one chain of several): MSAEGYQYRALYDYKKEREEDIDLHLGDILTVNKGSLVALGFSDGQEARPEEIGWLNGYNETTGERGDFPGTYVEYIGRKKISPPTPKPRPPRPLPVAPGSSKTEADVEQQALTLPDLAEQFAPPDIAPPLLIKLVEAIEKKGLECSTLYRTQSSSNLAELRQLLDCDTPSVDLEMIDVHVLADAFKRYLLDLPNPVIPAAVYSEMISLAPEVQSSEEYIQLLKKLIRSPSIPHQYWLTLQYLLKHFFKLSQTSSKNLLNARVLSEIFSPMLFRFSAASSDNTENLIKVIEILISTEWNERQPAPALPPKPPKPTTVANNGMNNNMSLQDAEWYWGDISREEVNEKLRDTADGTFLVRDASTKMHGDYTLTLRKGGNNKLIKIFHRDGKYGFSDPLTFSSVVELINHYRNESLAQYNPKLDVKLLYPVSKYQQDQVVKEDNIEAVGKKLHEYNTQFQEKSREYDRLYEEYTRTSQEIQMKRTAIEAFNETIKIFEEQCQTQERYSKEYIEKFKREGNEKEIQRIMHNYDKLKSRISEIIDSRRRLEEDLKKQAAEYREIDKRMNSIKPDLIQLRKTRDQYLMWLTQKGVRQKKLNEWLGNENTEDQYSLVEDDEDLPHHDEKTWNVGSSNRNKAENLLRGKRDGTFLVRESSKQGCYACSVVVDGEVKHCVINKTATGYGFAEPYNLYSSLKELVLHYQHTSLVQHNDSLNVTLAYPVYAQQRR

[4] = Apparent permeability in pig LLC-PK1 cells; assay type: ADME, cell-based, Sus scrofa
[5] = Oral bioavailability in Wistar Han rat; assay type: ADME, organism-based; conditions: in vivo
[6] = Intrinsic clearance in Beagle dog at 0.25 mg/kg, iv or 0.5 mg/kg, po; assay type: ADME, organism-based, Canis lupus familiaris; conditions: in vivo
[7] = Volume of distribution in Wistar Han rat; assay type: ADME; conditions: in vivo
[8] = Plasma clearance in Wistar Han rat at 0.5 mg/kg, iv or 1 mg/kg, po; assay type: ADME, organism-based
[9] = Volume of distribution in Beagle dog; assay type: ADME, Canis lupus familiaris; conditions: in vivo
[10] = Intrinsic clearance in Wistar Han rat at 0.5 mg/kg, iv or 1 mg/kg, po; assay type: ADME, organism-based; conditions: in vivo
[11] = Lipophilicity, log D of the compound by HPLC analysis; assay type: physicochemical
[12] = Half-life in Beagle dog; assay type: ADME, Canis lupus familiaris; conditions: in vivo
[13] = biological target: T1, Phosphatidylinositol 4,5-bisphosphate 3-kinase catalytic subunit delta isoform; assay: Inhibition of PI3Kdelta in human whole blood assessed as reduction in anti-CD79b antibody-induced CD69 expression preincubated for 60 mins followed by anti-CD79b antibody stimulation and measured after 3 hrs by FACS analysis; assay type: tissue-based
[14] = Unbound volume of distribution in Wistar Han rat; assay type: ADME; conditions: in vivo
[15] = Plasma clearance in Beagle dog at 0.25 mg/kg, iv or 0.5 mg/kg, po; assay type: ADME, organism-based, Canis lupus familiaris
[16] = Oral bioavailability in Beagle dog; assay type: ADME, organism-based, Canis lupus familiaris; conditions: in vivo
[17] = Half-life in Wistar Han rat; assay type: ADME; conditions: in vivo
[18] = Unbound volume of distribution in Beagle dog; assay type: ADME, Canis lupus familiaris; conditions: in vivo

SMILES | IC50 [1] | IC50 [2] | IC50 [3] | Papp [4] | bioavailability [5] | CL [6] | Vd [7] | clearance [8] | Vd [9] | CL [10] | logD [11] | half-life [12] | IC50 [13] | Vdu [14] | clearance [15] | bioavailability [16] | half-life [17] | Vdu [18]
CCC(=O)N1CC[C@H](Nc2ncnc3c2nc(-c2cnn(CC)c2C)n3CC2CC2)C1 | 1350 nM |  |  |  |  |  |  |  |  |  |  |  |  |  |  |  |  | 
CCC(=O)N1CC[C@H](Nc2ncnc3c2nc(-c2cnn(CC)c2C)n3C)C1 |  | 7300 nM |  |  |  |  |  |  |  |  |  |  |  |  |  |  |  | 
CCn1c(-c2ccc(C(F)(F)F)nc2)nc2c(O[C@H]3CCN(C(=O)N4CC(OC)C4)C3)ncnc21 | 43 nM | 2200 nM | 1.3 nM | 33 ×10⁻⁶ cm/s | 52% | 46 mL/min/kg | 0.2 L/kg | 1.7 mL/min/kg | 0.7 L/kg | 29 mL/min/kg | 2.1 | 0.7 h | 68 nM | 4.2 L/kg | 12 mL/min/kg | 100% | 2 h | 1.7 L/kg
CCn1c(-c2ccc(C(F)(F)F)nc2)nc2c(O[C@H]3CCN(C(=O)[C@H]4C[C@@H](OC)C4)C3)ncnc21 | 67 nM | 4100 nM | 1.6 nM | 35 ×10⁻⁶ cm/s | 39% | 18 mL/min/kg | 0.4 L/kg | 3.6 mL/min/kg | 1.1 L/kg | 130 mL/min/kg | 2.2 | 2.6 h | 73 nM | 13 L/kg | 6.2 mL/min/kg | 100% | 3.3 h | 2.5 L/kg
CCC(=O)N1CC[C@H](Nc2ncnc3c2nc(-c2cnn(CC)c2C)n3CC(F)F)C1 | 14 nM | 3100 nM | 1.3 nM |  |  |  |  |  |  |  |  |  |  |  |  |  |  | 
CCn1c(-c2cnc(C)nc2)nc2c(N[C@H]3CCN(C(=O)C4CCOCC4)C3)ncnc21 | 33 nM | 8900 nM | 2.1 nM |  | 18% |  | 0.7 L/kg | 24 mL/min/kg |  | 220 mL/min/kg | 0.7 |  |  | 4.3 L/kg |  |  | 1.4 h | 
CCn1c(-c2cnc(C)nc2)nc2c(N[C@H]3CCN(C(=O)[C@H]4C[C@@H](OC)C4)C3)ncnc21 | 34 nM | 6100 nM | 0.8 nM | 10 ×10⁻⁶ cm/s | 52% | 13 mL/min/kg | 1.5 L/kg | 6.9 mL/min/kg | 1.5 L/kg | 81 mL/min/kg | 0.9 | 4.3 h | 26 nM | 4.1 L/kg | 7.1 mL/min/kg | 85% | 2.3 h | 2 L/kg
CCC(=O)N1CC[C@H](Nc2ncnc3c2nc(-c2cnn(CC)c2C)n3C2CC2)C1 | 720 nM |  | 39 nM |  |  |  |  |  |  |  |  |  |  |  |  |  |  | 
CCC(=O)N1CC[C@H](Nc2ncnc3[nH]c(-c4cnn(CC)c4C)nc23)C1 | 875 nM | 5400 nM | 7.6 nM |  |  |  |  |  |  |  |  |  |  |  |  |  |  | 
CCC(=O)N1CC[C@H](Nc2ncnc3c2nc(-c2cnn(CC)c2C)n3CC(F)(F)F)C1 | 330 nM | 9300 nM | 5.9 nM |  |  |  |  |  |  |  |  |  |  |  |  |  |  | 
CCC(=O)N1CC[C@H](Nc2ncnc3c2nc(-c2cnn(CC)c2C)n3CC)C1 | 2 nM | 2300 nM | 0.2 nM |  |  |  |  |  |  |  |  |  |  |  |  |  |  | 
CCn1c(-c2ccc(C(F)(F)F)nc2)nc2c(O[C@H]3CCN(C(=O)c4cocn4)C3)ncnc21 | 300 nM | 4400 nM | 7.5 nM | 29 ×10⁻⁶ cm/s | 100% | 19 mL/min/kg | 0.3 L/kg | 1.3 mL/min/kg | 1.2 L/kg | 13 mL/min/kg | 2 | 2.5 h | 380 nM | 2.6 L/kg | 5.6 mL/min/kg | 100% | 6 h | 3.4 L/kg
CCn1c(-c2cnc(C)nc2)nc2c(O[C@H]3CCN(C(=O)c4cocn4)C3)ncnc21 | 94 nM | > 10000 nM | 6.4 nM |  | 50% | 16 mL/min/kg | 0.5 L/kg | 3.7 mL/min/kg | 1.7 L/kg | 25 mL/min/kg | 0.7 | 1.8 h | 600 nM | 3.2 L/kg | 9.3 mL/min/kg | 100% | 1.7 h | 1.9 L/kg
CCn1c(-c2cnc(C)nc2)nc2c(O[C@H]3CCN(C(=O)C4CC4)C3)ncnc21 | 80 nM | 5300 nM | 5.9 nM | 28 ×10⁻⁶ cm/s | 64% | 7 mL/min/kg | 0.7 L/kg | 9.7 mL/min/kg | 0.6 L/kg | 44 mL/min/kg | 1 | 1.3 h | 270 nM | 2.8 L/kg | 4.9 mL/min/kg | 100% | 1.8 h | 0.7 L/kg
CCC(=O)N1CC[C@H](Nc2ncnc3c2nc(-c2ccn(CC)c2C)n3C)C1 | 125 nM |  | 26 nM |  |  |  |  |  |  |  |  |  |  |  |  |  |  | 
CCCn1c(-c2cnn(CC)c2C)nc2c(N[C@H]3CCN(C(=O)CC)C3)ncnc21 | 198 nM | 3700 nM | 21 nM |  |  |  |  |  |  |  |  |  |  |  |  |  |  | 

Next, values leading:

IC50 [1] | IC50 [2] | IC50 [3] | Papp [4] | bioavailability [5] | CL [6] | Vd [7] | clearance [8] | Vd [9] | CL [10] | logD [11] | half-life [12] | IC50 [13] | Vdu [14] | clearance [15] | bioavailability [16] | half-life [17] | Vdu [18] | SMILES
4 nM | 1600 nM | 0.7 nM |  |  |  |  |  |  |  |  |  |  |  |  |  |  |  | CCC(=O)N1CC[C@H](Nc2ncnc3c2nc(-c2cnc(C(C)(C)C)s2)n3C)C1
4 nM | 1200 nM | 0.4 nM | 32 ×10⁻⁶ cm/s | 74% | 30 mL/min/kg | 0.5 L/kg | 13 mL/min/kg | 1.3 L/kg | 320 mL/min/kg | 1.2 | 1.3 h | 14 nM | 9.2 L/kg | 11 mL/min/kg | 84% | 0.6 h | 2.3 L/kg | CCn1c(-c2cnc(C)nc2)nc2c(N[C@H]3CCN(C(=O)C4CCC4)C3)ncnc21
71 nM | 2000 nM | 4.2 nM |  |  |  |  |  |  |  |  |  |  |  |  |  |  |  | CCC(=O)N1CC[C@H](Nc2ncnc3c2nc(-c2cnc(C)nc2)n3C)C1
67 nM | 1900 nM |  |  |  |  |  |  |  |  |  |  |  |  |  |  |  |  | CCC(=O)N1CC[C@H](Nc2ncnc3c2nc(-c2ccc(OC)nc2)n3C)C1
67 nM | 4700 nM | 0.7 nM | 10 ×10⁻⁶ cm/s | 16% | 19 mL/min/kg | 0.7 L/kg | 11 mL/min/kg | 1.4 L/kg | 93 mL/min/kg | 0.7 | 1.7 h | 9 nM | 4.8 L/kg | 9 mL/min/kg | 69% | 4 h | 1.9 L/kg | CCn1c(-c2cnc(C)nc2)nc2c(N[C@H]3CCN(C(=O)N4CC(OC)C4)C3)ncnc21
160 nM | 3800 nM | 5 nM |  |  |  |  |  |  |  |  |  |  |  |  |  |  |  | CCC(=O)N1CC[C@H](Nc2ncnc3c2nc(-c2ccc(C)nc2)n3C)C1
20 nM | 1300 nM | 2.6 nM |  |  |  |  |  |  |  |  |  |  |  |  |  |  |  | CCC(=O)N1CC[C@H](Nc2ncnc3c2nc(-c2cnc(OC)c(F)c2)n3C)C1
6 nM | 300 nM |  |  |  |  |  |  |  |  |  |  |  |  |  |  |  |  | CCC(=O)N1CC[C@H](Nc2ncnc3c2nc(-c2cnc(OC)c(C)c2)n3C)C1
66 nM | 700 nM | 9.9 nM |  |  |  |  |  |  |  |  |  |  |  |  |  |  |  | CCC(=O)N1CC[C@H](Nc2ncnc3c2nc(-c2ccc(C(F)(F)F)nc2)n3C)C1
455 nM |  | 135 nM |  |  |  |  |  |  |  |  |  |  |  |  |  |  |  | CCCn1c(-c2cnc(C)nc2)nc2c(N[C@H]3CCN(C(=O)CC)C3)ncnc21
